Data: US20240199623A1 (ILDONG PHARMACEUTICAL CO., LTD., priority 2020, published 2024)

target: human wild type-CFTR (Homo sapiens, UniProt P13569); assay: Cell-based YFP assay; set-up: expressed in transfected cells; host or cells: CHO-K1 (Chinese hamster ovary); conditions: CHO-K1 cells expressing human wild type-CFTR and YFP-H148Q/I152L; forskolin 20 μM = 100% activity; read-out: Cell-based YFP Assay (EC50) Concentration Range
How it was run: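 I⁻-driven YFP fluorescence quenching at 37 °C: 2 s baseline, addition of 140 mM iodide solution, then 14 s of readings at 0.4 s intervals. Cells were CHO-K1 expressing human wild-type CFTR plus YFP-H148Q/I152L. EC50 derived from averaged triplicates.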

human wild type-CFTR, sequence (P13569 whole entry): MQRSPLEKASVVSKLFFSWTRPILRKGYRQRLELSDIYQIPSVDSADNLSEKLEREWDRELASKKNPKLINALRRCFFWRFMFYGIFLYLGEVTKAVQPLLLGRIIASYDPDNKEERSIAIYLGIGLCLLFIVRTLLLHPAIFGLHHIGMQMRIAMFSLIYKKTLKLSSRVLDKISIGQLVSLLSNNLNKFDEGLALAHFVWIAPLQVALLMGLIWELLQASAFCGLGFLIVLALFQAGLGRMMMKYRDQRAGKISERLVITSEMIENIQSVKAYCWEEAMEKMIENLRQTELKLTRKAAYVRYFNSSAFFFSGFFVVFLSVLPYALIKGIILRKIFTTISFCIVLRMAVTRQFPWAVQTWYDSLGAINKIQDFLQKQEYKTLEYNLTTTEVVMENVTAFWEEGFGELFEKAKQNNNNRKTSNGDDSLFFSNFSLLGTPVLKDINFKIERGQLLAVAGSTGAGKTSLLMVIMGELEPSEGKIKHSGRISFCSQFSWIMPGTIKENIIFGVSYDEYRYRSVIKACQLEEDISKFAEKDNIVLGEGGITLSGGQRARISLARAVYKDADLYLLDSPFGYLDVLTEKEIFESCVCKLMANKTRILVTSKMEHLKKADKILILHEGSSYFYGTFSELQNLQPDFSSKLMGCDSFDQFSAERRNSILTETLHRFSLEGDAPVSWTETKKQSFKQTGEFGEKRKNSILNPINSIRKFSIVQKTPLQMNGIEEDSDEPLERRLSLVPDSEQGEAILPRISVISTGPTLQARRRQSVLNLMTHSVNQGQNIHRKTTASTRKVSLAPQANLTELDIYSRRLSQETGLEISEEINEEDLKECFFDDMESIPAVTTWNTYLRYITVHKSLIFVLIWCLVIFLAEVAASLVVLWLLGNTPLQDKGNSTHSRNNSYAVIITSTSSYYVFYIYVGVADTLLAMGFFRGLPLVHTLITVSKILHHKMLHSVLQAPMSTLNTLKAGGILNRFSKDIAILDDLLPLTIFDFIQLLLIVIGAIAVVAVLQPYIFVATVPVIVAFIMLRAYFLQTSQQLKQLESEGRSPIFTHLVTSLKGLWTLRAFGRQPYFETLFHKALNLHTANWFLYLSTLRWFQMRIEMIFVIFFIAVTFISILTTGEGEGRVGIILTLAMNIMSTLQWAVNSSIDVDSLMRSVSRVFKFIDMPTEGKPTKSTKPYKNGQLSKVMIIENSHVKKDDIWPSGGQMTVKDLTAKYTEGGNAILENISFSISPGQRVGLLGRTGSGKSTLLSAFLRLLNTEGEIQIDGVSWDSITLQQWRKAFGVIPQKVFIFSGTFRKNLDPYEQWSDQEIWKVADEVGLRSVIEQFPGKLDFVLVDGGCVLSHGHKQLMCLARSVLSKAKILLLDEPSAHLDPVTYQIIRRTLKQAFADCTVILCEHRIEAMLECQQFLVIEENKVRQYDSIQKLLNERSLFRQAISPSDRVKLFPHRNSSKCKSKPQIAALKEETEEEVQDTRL

EC50 | SMILES
≥ 2000 nM | COc1ccc(-c2ccnc3cc(C(=O)N[C@H]4CC[C@H](C(=O)N5CCC(N6CCOCC6)CC5)CC4)nn23)cc1OC [Compound 341, 7-(3,4-dimethoxyphenyl)-N-((1R,4R)-4-(4-morpholinopiperidine-1-carbonyl)cyclohexyl) pyrazolo[1,5-a] pyrimidine-2-carboxamide]
200 to 2000 nM | COc1ccc(-c2ccnc3cc(C(=O)N[C@H]4CC[C@H](C(=O)N5CCN(c6ccccn6)CC5)CC4)nn23)cc1OC [Compound 342, 7-(3,4-dimethoxphenyl)-N-((1R,4R)-4-(4-(pyridin-2-yl)piperazine-1-carbonyl)cyclohexyl) pyrazolo[1,5-a] pyrimidine-2-carboxamide]
≥ 2000 nM | COc1ccc(-c2ccnc3cc(C(=O)N[C@H]4CC[C@H](C(=O)N5CCC(N6CCCCC6)CC5)CC4)nn23)cc1OC [Compound 343, N-((1R,4R)-4-([1,4′-bipiperidine]-1′-carbonyl)cyclohexyl)-7-(3,4-dimethoxyphenyl)pyrazolo [1,5-a]pyrimidine-2-carboxamide]
≥ 2000 nM | COc1ccc(-c2ccnc3cc(C(=O)N[C@H]4CC[C@H](N5CCOCC5)CC4)nn23)cc1OC [Compound 345, 7-(3,4-dimethoxyphenyl)-N-((1R,4R)-4-morpholinocyclohexyl) pyrazolo[1,5-a]pyrimidine-2-carboxamide]
< 200 nM | COCCOCOc1ccc(NC(=O)c2cc3nccc(-c4ccc(OC)c(OC)c4)n3n2)cc1 [Compound 346, 7-(3,4-dimethoxyphenyl)-N-(4-((2-methoxyethoxy)methoxy)phenyl)pyrazolo[1,5-a]pyrimidine-2-carboxamide]
≥ 2000 nM | COc1ccc(-c2ccnc3cc(C(=O)N4CC(C)NC(C)C4)nn23)cc1OC (centres unmarked) [Compound 347, (7-(3,4-dimethoxyphenyl)pyrazolo[1,5-a]pyrimidin-2-yl)(3,5-dimethylpiperazin-1-yl)methanone]
200 to 2000 nM | COc1ccc(-c2ccnc3cc(C(=O)N4CC(C)N(C(=O)c5ccccc5)C(C)C4)nn23)cc1OC (centres unmarked) [Compound 348, (4-benzoyl-3,5-dimethylpiperazin-1-yl) (7-(3,4-dimethoxyphenyl)pyrazolo [1,5-a]pyrimidine-2-yl)methanone]
< 200 nM | COc1ccc(-c2ccnc3cc(C(=O)Nc4ccc(C(=O)N5CCC(N6CCOCC6)CC5)cc4F)nn23)cc1OC [Compound 349, 7-(3,4-dimethoxyphenyl)-N-(2-fluoro-4-(4-morpholinopiperidine-1-carbonyl)phenyl)pyrazolo [1,5-a]pyrimidine-2-carboxamide]
< 200 nM | COc1ccc(-c2ccnc3cc(C(=O)N4CCN(C(=O)c5ccc(F)cc5)[C@@H](C)C4)nn23)cc1OC [Compound 350, (S)-(7-(3,4-dimethoxyphenyl)pyrazolo[1,5-a]pyrimidin-2-yl)(4-(4-fluorobenzoyl)-3-methylpiperazin-1-yl) methanone]
< 200 nM | COc1ccc(-c2ccnc3cc(C(=O)N4CCN(C(=O)c5ccc(C)cc5)[C@@H](C)C4)nn23)cc1OC [Compound 351, (S)-(7-(3,4-dimethoxyphenyl)pyrazolo[1,5-a]pyrimidin-2-yl)(3-methyl-4-(4-methylbenzoyl)piperazin-1-yl)methanone]
< 200 nM | COc1ccc(-c2ccnc3cc(C(=O)N4CCN(C(=O)c5ccco5)[C@@H](C)C4)nn23)cc1OC [Compound 353, (S)-(7-(3,4-dimethoxyphenyl)pyrazolo[1,5-a]pyrimidin-2-yl)(4-(furan-2-carbonyl)-3-methylpiperazin-1-yl)methanone]
< 200 nM | COc1ccc(-c2ccnc3cc(C(=O)N4CCN(C(=O)Nc5ccccc5)[C@@H](C)C4)nn23)cc1OC [Compound 354, (S)-4-(7-(3,4-dimethoxy-phenyl)pyrazolo[1,5-a]pyrimidine-2-carbonyl)-2-methyl-N-phenylpiperazine-1-carboxamide]
< 200 nM | COc1ccc(-c2ccnc3cc(C(=O)N4CCN(C(=O)c5cc(F)ccc5F)[C@@H](C)C4)nn23)cc1OC [Compound 356]
200 to 2000 nM | COc1ccc(-c2ccnc3cc(C(=O)N4CCN(C(=O)c5ccncc5)[C@@H](C)C4)nn23)cc1OC [Compound 357, (S)-(7-(3,4-dimethoxyphenyl)pyrazolo[1,5-a]pyrimidin-2-yl)(4-isonicotinoyl-3-methylpiperazin-1-yl)methanone]
200 to 2000 nM | COc1ccc(-c2ccnc3cc(C(=O)N4C[C@@H](C)N[C@@H](C)C4)nn23)cc1OC [Compound 358, (7-(3,4-dimethoxyphenyl)pyrazolo[1,5-a]pyrimidin-2-yl) ((3R,5S)-3,5-dimethylpiperazin-1-yl) methanone]
200 to 2000 nM | COc1ccc(-c2ccnc3cc(C(=O)N4C[C@H](C)N[C@@H](C)C4)nn23)cc1OC [Compound 359, (7-(3,4-dimethoxyphenyl)pyrazolo[1,5-a]pyrimidin-2-yl) ((3S,5S)-3,5-dimethylpiperazin-1-yl)methanone]

EC50 | SMILES
200 to 2000 nM | COc1ccc(-c2ccnc3cc(C(=O)N4C[C@H](C)NC[C@H]4C)nn23)cc1OC [Compound 360, (7-(3,4-dimethoxyphenyl)pyrazolo[1,5-a]pyrimidin-2-yl) ((2R,5S)-2,5-dimethylpiperazin-1-yl)methanone]
200 to 2000 nM | COc1ccc(-c2ccnc3cc(C(=O)N4CCNC5(CC5)C4)nn23)cc1OC [Compound 361, (7-(3,4-dimethoxyphenyl)pyrazolo[1,5-a]pyrimidin-2-yl)(4,7-diazaspiro[2.5]octan-7-yl)methanone]
200 to 2000 nM | COc1ccc(-c2ccnc3cc(C(=O)N4C[C@H](C)NC[C@@H]4C)nn23)cc1OC [Compound 362, (7-(3,4-dimethoxyphenyl)pyrazolo[1,5-a]pyrimidin-2-yl) ((2S,5S)-2,5-dimethylpiperazin-1-yl)methanone]
< 200 nM | COc1ccc(-c2ccnc3cc(C(=O)N4C[C@@H](C)N(C(=O)c5ccccc5)[C@@H](C)C4)nn23)cc1OC [Compound 363, ((3R,5S)-4-benzoyl-3,5-dimethylpiperazin-1-yl)(7-(3,4-dimethoxyphenyl)pyrazolo[1,5-a]pyrimidin-2-yl) methanone]
< 200 nM | COc1ccc(-c2ccnc3cc(C(=O)N4C[C@H](C)N(C(=O)c5ccccc5)[C@@H](C)C4)nn23)cc1OC [Compound 364, ((3S,5S)-4-benzoyl-3,5-dimethylpiperazin-1-yl) (7-(3,4-dimethoxyphenyl)pyrazolo[1,5-a]pyrimidin-2-yl)methanone]
< 200 nM | COc1ccc(-c2ccnc3cc(C(=O)N4C[C@H](C)N(C(=O)c5ccccc5)C[C@H]4C)nn23)cc1OC [Compound 365, ((2R,5S)-4-benzoyl-2,5-dimethylpiperazin-1-yl)(7-(3,4-dimethoxyphenyl)pyrazolo[1,5-a]pyrimidin-2-yl)methanone]
< 200 nM | COc1ccc(-c2ccnc3cc(C(=O)N4C[C@H](C)N(C(=O)c5ccccc5)C[C@@H]4C)nn23)cc1OC [Compound 366, ((2S,5S)-4-benzoyl-2,5-dimethylpiperazin-1-yl)(7-(3,4-dimethoxyphenyl)pyrazolo[1,5-a]pyrimidin-2-yl)methanone]
< 200 nM | COc1ccc(-c2ccnc3cc(C(=O)N4CCN(C(=O)c5ccccc5)C5(CC5)C4)nn23)cc1OC [Compound 367, (4-benzoyl-4,7-diazaspiro [2.5]octan-7-yl)(7-(3,4-dimethoxyphenyl)pyrazolo[1,5-a]pyrimidin-2-yl)methanone]
< 200 nM | COc1ccc(-c2ccnc3cc(C(=O)N4CCN(C(=O)c5ccccc5F)[C@@H](C)C4)nn23)cc1OC [Compound 368, (S)-(7-(3,4-dimethoxyphenyl)pyrazolo[1,5-a]pyrimidin-2-yl)(4-(2-fluorobenzoyl)-3-methylpiperazin-1-yl)methanone]
< 200 nM | COc1ccc(-c2ccnc3cc(C(=O)N4CCN(C(=O)c5cccc(C)c5)[C@@H](C)C4)nn23)cc1OC [Compound 369, (S)-(7-(3,4-dimethoxyphenyl)pyrazolo[1,5-a]pyrimidin-2-yl)(3-methyl-4-(3-methylbenzoyl)piperazin-1-yl)methanone]
< 200 nM | COc1ccc(-c2ccnc3cc(C(=O)N4CCN(C(=O)c5ccoc5)[C@@H](C)C4)nn23)cc1OC [Compound 370, (S)-(7-(3,4-dimethoxyphenyl)pyrazolo[1,5-a]pyrimidin-2-yl)(4-(furan-3-carbonyl)-3-methylpiperazin-1-yl)methanone]
200 to 2000 nM | CC[C@H]1CN(C(=O)c2cc3nccc(-c4ccc(OC)c(OC)c4)n3n2)CCN1 [Compound 371, (S)-(7-(3,4-dimethoxyphenyl)pyrazolo[1,5-a]pyrimidin-2-yl)(3-ethylpiperazin-1-yl)methanone]
200 to 2000 nM | COc1ccc(-c2ccnc3cc(C(=O)N4CCN[C@@H](C(C)C)C4)nn23)cc1OC [Compound 372, (S)-(7-(3,4-dimethoxyphenyl)pyrazolo[1,5-a]pyrimidin-2-yl)(3-isopropylpiperazin-1-yl)methanone]
200 to 2000 nM | CCC[C@H]1CN(C(=O)c2cc3nccc(-c4ccc(OC)c(OC)c4)n3n2)CCN1 [Compound 373, (S)-(7-(3,4-dimethoxyphenyl)pyrazolo[1,5-a]pyrimidin-2-yl)(3-propylpiperazin-1-yl)methanone]
200 to 2000 nM | COc1ccc(-c2ccnc3cc(C(=O)N4CCN[C@@H](C5CC5)C4)nn23)cc1OC [Compound 374, (S)-(3-cyclopropylpiperazin-1-yl)(7-(3,4-dimethoxyphenyl)pyrazolo [1,5-a]pyrimidin-2-yl)methanone]
< 200 nM | CC[C@H]1CN(C(=O)c2cc3nccc(-c4ccc(OC)c(OC)c4)n3n2)CCN1C(=O)c1ccccc1 [Compound 375, (S)-(4-benzoyl-3-ethylpiperazin-1-yl)(7-(3,4-dimethoxyphenyl)pyrazolo [1,5-a]pyrimidin-2-yl)methanone]
